From patent US6906035B2, “Antimicrobial cationic peptides” (priority 1995, dated 2005)
Where “and” joins values, the source holds several entries; their conditions need not be identical. Identical values can stand only once. Like-named read-outs stand apart in the source and are kept apart here.

What was measured:
Details in all cases: agent alone
[1] = system: X. maltophila; assay: organism not typed
Method: (§1) FICs are performed by checkerboard titrations of peptides in one dimension of a microtiter plate, and of antibiotics in the other dimension, for example. The FIC is calculated by looking at the impact of one antibiotic on the MIC of the other and vice versa. […] Preferably, an FIC of less than 0.5 is obtained for synergism. As used herein, FIC can be determined as follows: [formula]
(§2) Synergism is identified as an FIC of about ≦0.5.

[2] = system: P. aeruginosa; assay: microbe, parasite or virus in culture
Method: as §1, §2

[3] = system: E. cloacae
Method: as §1, §2

[4] = system: A. calcoaceticus
Method: as §1, §2

[5] = X. maltophila isolate 44, strain W6896-2
[6] = P. aeruginosa isolate 28, strain 15036
[7] = X. maltophila isolate 35, strain 6
[8] = X. maltophila isolate 36, strain 16
[9] = X. maltophila isolate 37, strain 3095
[10] = X. maltophila isolate 38, strain 7901
[11] = X. maltophila isolate 39, strain B3110.1
[12] = X. maltophila isolate 40, strain R1302-1
[13] = X. maltophila isolate 41, strain R4230
[14] = X. maltophila isolate 42, strain TF29-1
[15] = X. maltophila isolate 43, strain TF29-2
[16] = X. maltophila isolate 45, strain W11291
[17] = E. cloacae isolate 14, strain 938-2
[18] = E. cloacae isolate 18, strain 3077
[19] = P. aeruginosa isolate 23, strain ATCC 27853
[20] = P. aeruginosa isolate 25, strain 923-1
[21] = P. aeruginosa isolate 26, strain 3101
[22] = P. aeruginosa isolate 27, strain 14644
[23] = P. aeruginosa isolate 30, strain B3999-1
[24] = P. aeruginosa isolate 32, strain W2897-1
[25] = A. calcoaceticus isolate 1, strain ATCC 23055
[26] = P. aeruginosa isolate 24, strain 34
[27] = P. aeruginosa isolate 31, strain U7688-1

SMILES | MIC [1, 5] | MIC [2, 6] | MIC [1, 7] | MIC [1, 8] | MIC [1, 9] | MIC [1, 10] | MIC [1, 11] | MIC [1, 12] | MIC [1, 13] | MIC [1, 14] | MIC [1, 15] | MIC [1, 16] | MIC [3, 17] | MIC [3, 18] | MIC [2, 19] | MIC [2, 20] | MIC [2, 21] | MIC [2, 22] | MIC [2, 23] | MIC [2, 24] | further results
O=C(O)c1cn(C2CC2)c2cc(N3CCNCC3)c(F)cc2c1=O [Ciprofloxacin] | 8 µg/mL | 32 µg/mL |  |  |  |  |  |  |  |  |  |  |  |  |  |  |  |  |  |  | 
C[C@@H](O)[C@H]1C(=O)N2C(C(=O)O)=C(SCCN=CN)C[C@H]12 [Imipenem] | 512 µg/mL | 8 µg/mL | 512 µg/mL | 512 µg/mL | 512 µg/mL | 512 µg/mL | 512 µg/mL | 512 µg/mL | 512 µg/mL | 512 µg/mL | 512 µg/mL | 512 µg/mL | 2 µg/mL | 2 µg/mL | 4 µg/mL | 2 µg/mL | 4 µg/mL | 8 µg/mL | 128 µg/mL | 128 µg/mL | MIC ([1]; X. maltophila isolate 34, strain ATCC 13637): 512 µg/mL; MIC ([3]; E. cloacae isolate 12, strain ATCC 13047): 2 µg/mL; MIC ([3]; E. cloacae isolate 19, strain 3356): 2 µg/mL; MIC ([3]; E. cloacae isolate 20, strain 14269): 2 µg/mL; MIC ([4]; A. calcoaceticus isolate 3, strain 27): 512 µg/mL; MIC ([4]; A. calcoaceticus isolate 4, strain 28): 8 µg/mL; MIC ([4]; A. calcoaceticus isolate 7, strain 8222): 2 µg/mL; MIC ([4]; A. calcoaceticus isolate 11, strain 8226): 2 µg/mL; MIC ([2]; P. aeruginosa isolate 29, strain 15545): 128 µg/mL
CC(C)(O/N=C(\C(=O)N[C@@H]1C(=O)N2C(C(=O)[O-])=C(C[n+]3ccccc3)CS[C@H]12)c1csc(N)n1)C(=O)O [Ceftazidime] |  | 4 µg/mL | 32 µg/mL | 16 µg/mL |  | 256 µg/mL | 128 µg/mL | 32 µg/mL | 8 µg/mL |  | 2 µg/mL | 128 µg/mL and 256 µg/mL |  |  |  |  |  | 256 µg/mL | 8 µg/mL |  | MIC [4, 25]: 4 µg/mL; MIC ([4]; A. calcoaceticus isolate 5, strain 8220): 8 µg/mL; MIC [2, 26]: 64 µg/mL
CCN1CCN(C(=O)N[C@@H](C(=O)N[C@@H]2C(=O)N3[C@@H]2SC(C)(C)[C@@H]3C(=O)O)c2ccccc2)C(=O)C1=O [Piperacillin] |  |  |  |  | 1024 µg/mL | 1024 µg/mL | 1024 µg/mL | 1024 µg/mL |  |  |  | 1024 µg/mL | 4 µg/mL | 4 µg/mL | 128 µg/mL | 32 µg/mL | 128 µg/mL | 1024 µg/mL | 256 µg/mL | 32 µg/mL | MIC ([3]; E. cloacae isolate 21, strain 14661): 8 µg/mL; MIC ([4]; A. calcoaceticus isolate 9, strain 8224): 128 µg/mL; MIC [2, 27]: 256 µg/mL; MIC ([2]; Pseudomonas aeruginosa, P. aeruginosa isolate 23, strain ATCC 27853): 256 µg/mL
NC[C@H]1O[C@H](O[C@H]2[C@H](O)[C@@H](O[C@H]3O[C@H](CO)[C@@H](O)[C@H](N)[C@H]3O)[C@H](N)C[C@@H]2N)[C@H](N)C[C@@H]1O [Tobramycin] | 8 µg/mL |  |  | 128 µg/mL |  |  | 16 µg/mL |  |  | 1 µg/mL | 1 µg/mL |  | 1 µg/mL |  |  |  |  | 1 µg/mL | 1 µg/mL |  | MIC ([3]; E. cloacae isolate 15, strain B5546): 1 µg/mL; MIC [4, 25]: 2 µg/mL; MIC [2, 26]: 128 µg/mL; MIC [2, 27]: 2 µg/mL; MIC ([2]; P. aeruginosa isolate 33, strain W5483-2): 2 µg/mL
